Data taken from PMC6856162 (2019).

Legend:
[1] = test system: 5′r(CCGCAGCGG)3′ (RNA, mismatch bulge abasic) CCGCAGCGG; experiment: 1D and 2D NMR titration; conditions: 298 K; D/N 0.0 to 2.0
[2] = test system: (5′CAG/3′GAC)x6; AAx6; AA × 6 (RNA, repeat) GGGAGAGGGUUUAAUCAGCAGCAGCAGCAGCAGUACGAAAGUACAGCAGCAGCAGCAGCAGAUUGGAUCCGCAAGG; experiment: ITC; conditions: 0.1 M NaCl; 10 mM Na2HPO4, EDTA, pH 7.2; two-site fit; nanomolar range stated
[3] = test system: (5′CAG/3′GAC)x6; AAx6; AA × 6 (RNA, repeat) GGGAGAGGGUUUAAUCAGCAGCAGCAGCAGCAGUACGAAAGUACAGCAGCAGCAGCAGCAGAUUGGAUCCGCAAGG; experiment: UV melting; conditions: Na+ 10 mM Na2HPO4 + 0.1 M NaCl (melting buffer not given; assumed same as CD/ITC buffer, which also has 50 mM EDTA); derived from two Tm (51.8, 57.9); D/N 2.0; per base
[4] = test system: (5′CAG/3′GAC)x6; AAx6; AA × 6 (RNA, repeat) GGGAGAGGGUUUAAUCAGCAGCAGCAGCAGCAGUACGAAAGUACAGCAGCAGCAGCAGCAGAUUGGAUCCGCAAGG; experiment: fluorescence titration; conditions: room temperature; two-site fit

binding [1]: yes
binding [2]: yes
dTm [3]: 6.1 °C
binding [4]: yes
Compound: Cc1cc2ccccc2nc1-c1ccccc1F
